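All cell lines were grown in 96-well plates and treated with compound for 48 hours. The concentration for full growth arrest is given as TGI.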
Legend:
Assay in all cases: NCI tumour cell line growth inhibition, 48 h
[1] = system: SNB-75 CNS
[2] = system: NCI-H23 lung
[3] = system: M19-MEL melanoma
[4] = system: HCT-15 colon
[5] = system: SF-539 CNS
[6] = system: RXF 393 renal
[7] = system: HT29 colon
[8] = system: SK-OV-3 ovarian
[9] = system: HCT-116 colon
[10] = system: RPMI-8226 leukemia
[11] = system: RXF-631 renal
[12] = system: OVCAR-8 ovarian
[13] = system: A549 NSCLC
[14] = system: SNB-78 CNS
[15] = system: DLD-1 colon
[16] = system: COLO 205 colon
[17] = system: MALME-3M melanoma
[18] = system: XF 498 CNS
[19] = system: SF-295 CNS
[20] = system: 786-0 renal
[21] = system: MOLT-4 leukemia
[22] = system: CAKI-1 renal
[23] = system: IGROV1 ovarian
[24] = system: NCI-H522 lung
[25] = system: NCI-H460 lung
[26] = system: UACC-62 melanoma
[27] = system: SK-MEL-28 melanoma
[28] = system: M14 melanoma
[29] = system: ACHN renal
[30] = system: DMS 273 small cell lung
[31] = system: SF-268 CNS
[32] = system: HL-60(TB) leukemia
[33] = system: CCRF-CEM leukemia
[34] = system: TK-10 renal
[35] = system: SN12C renal
[36] = system: KM20L2 colon
[37] = system: U251 CNS
[38] = system: SK-MEL-5 melanoma
[39] = system: UACC-257 melanoma
[40] = system: OVCAR-4 ovarian
[41] = system: HOP-18 NSCLC
[42] = system: SW-620 colon
[43] = system: UO-31 renal
[44] = system: KM12 colon
[45] = system: K-562 leukemia
[46] = system: EKVX NSCLC
[47] = system: HOP-62 NSCLC
[48] = system: OVCAR-3 ovarian
[49] = system: HOP-92 NSCLC
[50] = system: SNB-19 CNS
[51] = system: SK-MEL-2 melanoma
[52] = system: A498 renal
[53] = system: LXFL 529 NSCLC
[54] = system: LOX IMVI melanoma
[55] = system: DMS 114 small cell lung
[56] = system: NCI-H226 lung
[57] = system: OVCAR-5 ovarian
[58] = system: SR leukemia
[59] = system: HCC-2998 colon

Structure (SMILES): Cc1cc(C)nc(NS(=O)(=O)c2ccc(NC(=O)c3cccc4c(Nc5ccc(S(=O)(=O)Nc6nc(C)cc(C)n6)cc5)c5ccccc5nc34)cc2)n1
- TGI [1]: 35.5 µM
- TGI [2]: 57.3 µM
- TGI [3]: > 100 µM
- TGI [4]: 49 µM
- TGI [5]: 32.6 µM
- TGI [6]: 31.5 µM
- TGI [7]: 43.9 µM
- TGI [8]: 57.2 µM
- TGI [9]: 26 µM
- TGI [10]: 61.8 µM
- TGI [11]: 42.6 µM
- TGI [12]: 68.1 µM
- TGI [13]: 68.2 µM
- TGI [14]: > 100 µM
- TGI [15]: 54.2 µM
- TGI [16]: 45.4 µM
- TGI [17]: 56.7 µM
- TGI [18]: 79.7 µM
- TGI [19]: 51.5 µM
- TGI [20]: 46.8 µM
- TGI [21]: 62.8 µM
- TGI [22]: 51.6 µM
- TGI [23]: > 100 µM
- TGI [24]: 32.8 µM
- TGI [25]: > 100 µM
- TGI [26]: 57.3 µM
- TGI [27]: 46 µM
- TGI [28]: 54.9 µM
- TGI [29]: 49.8 µM
- TGI [30]: 38.9 µM
- TGI [31]: 93 µM
- TGI [32]: 48.9 µM
- TGI [33]: 69.6 µM
- TGI [34]: 73.3 µM
- TGI [35]: 41.1 µM
- TGI [36]: 42.9 µM
- TGI [37]: 38.6 µM
- TGI [38]: 36.6 µM
- TGI [39]: 43.2 µM
- TGI [40]: 64.1 µM
- TGI [41]: 29.7 µM
- TGI [42]: 65.3 µM
- TGI [43]: 37.3 µM
- TGI [44]: 44.3 µM
- TGI [45]: 61.2 µM
- TGI [46]: 55.1 µM
- TGI [47]: 66 µM
- TGI [48]: 39.8 µM
- TGI [49]: 45.1 µM
- TGI [50]: 82.4 µM
- TGI [51]: 70.4 µM
- TGI [52]: 35.9 µM
- TGI [53]: 70.3 µM
- TGI [54]: 38.7 µM

Structure (SMILES): Cc1c2ccccc2c(CO)c2cc(F)c3ccccc3c12
- TGI [1]: > 100 µM
- TGI [2]: > 100 µM
- TGI [3]: > 100 µM
- TGI [55]: 34.2 µM
- TGI [5]: > 100 µM
- TGI [6]: 61.5 µM
- TGI [7]: 49 µM
- TGI [8]: 73.6 µM
- TGI [9]: 40.3 µM
- TGI [11]: 30.7 µM
- TGI [12]: 41.4 µM
- TGI [13]: > 100 µM
- TGI [14]: 69.1 µM
- TGI [15]: 43.6 µM
- TGI [16]: 32.2 µM
- TGI [17]: > 100 µM
- TGI [18]: 51 µM
- TGI [19]: 57.8 µM
- TGI [21]: 39.6 µM
- TGI [22]: 79.4 µM
- TGI [23]: 63.7 µM
- TGI [24]: 26.3 µM
- TGI [26]: > 100 µM
- TGI [27]: > 100 µM
- TGI [29]: 58.2 µM
- TGI [30]: 32 µM
- TGI [31]: 71.2 µM
- TGI [32]: 61 µM
- TGI [33]: 68 µM
- TGI [56]: > 100 µM
- TGI [34]: 71.8 µM
- TGI [35]: 33.3 µM
- TGI [36]: 48.6 µM
- TGI [37]: 50.3 µM
- TGI [57]: 80.6 µM
- TGI [38]: > 100 µM
- TGI [39]: > 100 µM
- TGI [40]: 98.2 µM
- TGI [41]: 89.9 µM
- TGI [42]: > 100 µM
- TGI [58]: 70.7 µM
- TGI [43]: > 100 µM
- TGI [44]: 56.3 µM
- TGI [45]: > 100 µM
- TGI [46]: > 100 µM
- TGI [47]: 92.9 µM
- TGI [59]: > 100 µM
- TGI [48]: 61.3 µM
- TGI [49]: 78.4 µM
- TGI [50]: > 100 µM
- TGI [51]: 36.7 µM
- TGI [52]: > 100 µM
- TGI [54]: 36.1 µM

From PubChem BioAssay (NCI)
